From PubChem BioAssay (NCI)
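Exposure lasted 48 hours, with cells grown in 96-well plates and compounds tested at five concentrations. TGI is the concentration that stops growth completely.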

Key:
Test in all cases: DTP human tumour cell line panel, 48 h
UO-31 renal = tested on: UO-31 renal
RPMI-8226 leukemia = tested on: RPMI-8226 leukemia
MDA-N = tested on: MDA-N
UACC-257 melanoma = tested on: UACC-257 melanoma
HL-60(TB) leukemia = tested on: HL-60(TB) leukemia
PC-3 prostate = tested on: PC-3 prostate
MDA-MB-435 = tested on: MDA-MB-435
MOLT-4 leukemia = tested on: MOLT-4 leukemia
LOX IMVI melanoma = tested on: LOX IMVI melanoma
SW-620 colon = tested on: SW-620 colon
NCI-H460 lung = tested on: NCI-H460 lung
KM12 colon = tested on: KM12 colon
A498 renal = tested on: A498 renal
M14 melanoma = tested on: M14 melanoma
HCC-2998 colon = tested on: HCC-2998 colon
SK-MEL-28 melanoma = tested on: SK-MEL-28 melanoma
HOP-62 NSCLC = tested on: HOP-62 NSCLC
HCT-15 colon = tested on: HCT-15 colon
786-0 renal = tested on: 786-0 renal
RXF 393 renal = tested on: RXF 393 renal
SNB-75 CNS = tested on: SNB-75 CNS
SN12C renal = tested on: SN12C renal
U251 CNS = tested on: U251 CNS
ACHN renal = tested on: ACHN renal
A549 NSCLC = tested on: A549 NSCLC
SF-539 CNS = tested on: SF-539 CNS
NCI/ADR-RES ovarian = tested on: NCI/ADR-RES ovarian
HOP-92 NSCLC = tested on: HOP-92 NSCLC
NCI-H226 lung = tested on: NCI-H226 lung
EKVX NSCLC = tested on: EKVX NSCLC
SK-MEL-2 melanoma = tested on: SK-MEL-2 melanoma
MDA-MB-231 breast = tested on: MDA-MB-231 breast
SNB-19 CNS = tested on: SNB-19 CNS
BT-549 breast = tested on: BT-549 breast
DU-145 prostate = tested on: DU-145 prostate
SF-295 CNS = tested on: SF-295 CNS
SK-MEL-5 melanoma = tested on: SK-MEL-5 melanoma
OVCAR-4 ovarian = tested on: OVCAR-4 ovarian
OVCAR-5 ovarian = tested on: OVCAR-5 ovarian
SF-268 CNS = tested on: SF-268 CNS
OVCAR-3 ovarian = tested on: OVCAR-3 ovarian
K-562 leukemia = tested on: K-562 leukemia
OVCAR-8 ovarian = tested on: OVCAR-8 ovarian
SR leukemia = tested on: SR leukemia
CAKI-1 renal = tested on: CAKI-1 renal
TK-10 renal = tested on: TK-10 renal
NCI-H23 lung = tested on: NCI-H23 lung
HT29 colon = tested on: HT29 colon
HS 578T breast = tested on: HS 578T breast
NCI-H522 lung = tested on: NCI-H522 lung
T-47D breast = tested on: T-47D breast
MCF7 breast = tested on: MCF7 breast
IGROV1 ovarian = tested on: IGROV1 ovarian
HCT-116 colon = tested on: HCT-116 colon
CCRF-CEM leukemia = tested on: CCRF-CEM leukemia
MALME-3M melanoma = tested on: MALME-3M melanoma
SK-OV-3 ovarian = tested on: SK-OV-3 ovarian
COLO 205 colon = tested on: COLO 205 colon

Measured: TGI

Cc1ccc(S(=O)(=O)C2=C(C(C)C)N=NC2(C)C)cc1
69.6 µM: HOP-92 NSCLC
53.8 µM: RPMI-8226 leukemia
not listed: CCRF-CEM leukemia | MALME-3M melanoma | SK-OV-3 ovarian | COLO 205 colon
> 100 µM: all other assays above

CC1CC(Nc2ccc(Br)cc2)N(C(=O)c2ccc(Br)cc2)O1 (configuration not stated)
not listed: LOX IMVI melanoma | KM12 colon | A498 renal | U251 CNS | HOP-92 NSCLC
> 10 µM: all other assays above
